The test deals with T1, Proteinase-activated receptor 2 (Homo sapiens, UniProt P55085).
T1 sequence (P55085 whole entry): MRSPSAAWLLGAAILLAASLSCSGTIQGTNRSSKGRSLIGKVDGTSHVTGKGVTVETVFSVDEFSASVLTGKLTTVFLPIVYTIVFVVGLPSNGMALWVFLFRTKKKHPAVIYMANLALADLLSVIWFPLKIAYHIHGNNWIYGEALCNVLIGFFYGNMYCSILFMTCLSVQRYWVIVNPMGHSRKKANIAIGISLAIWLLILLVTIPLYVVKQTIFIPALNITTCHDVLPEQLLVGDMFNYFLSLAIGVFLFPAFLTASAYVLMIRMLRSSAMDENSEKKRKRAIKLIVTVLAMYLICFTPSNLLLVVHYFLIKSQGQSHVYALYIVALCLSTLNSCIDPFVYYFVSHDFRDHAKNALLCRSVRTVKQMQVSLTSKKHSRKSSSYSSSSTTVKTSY
The test can be described thus: Agonist activity at PAR2 receptor in human HT-29 cells assessed as induction of intracellular calcium release. In general terms: Calcium assays in cells follow changes in intracellular calcium, usually with a dye or a luminescent sensor.

By EC50 is commonly meant the midpoint of the concentration-response curve. With `CC[C@H](C)[C@H](NC(=O)[C@H](CC1CCCCC1)NC(=O)c1ccno1)C(=O)Nc1ccc(CC(=O)N2CCC(CN)CC2)cc1` [5-Isoxazoyl-Cha-Ile-4-aminophenyl-(4-[aminomethyl]piperidin-1-yl)ethan-2-one], the half-maximal effective concentration (EC50) stood at 316 nM.
